The source of these data is patent US6069132A, “Phosphazole compounds” (priority 1997, dated 2000).

The conditions of series [1]: cited from earlier work.
A further series deals with herpesviruses. The conditions noted are these: cited from earlier work.
The subject of a further series is IL-1β. The experiment in a line: Inhibition of IL-1β production in LPS-stimulated THP-1 cells (ELISA). The series is classed as cell-based, human. The note with it: Homo sapiens; Table 2; LPS-stimulated THP-1, 6 h post-stimulation; read-out: IC50 IL-1β in THP-1 cells. As to the method:
(§1) Cell line. THP-1 cells (human monocyte) were maintained in RPMI 1640 medium containing 25 mM Hepes buffer, 2 mM L-glutamine, 50 units of penicillin per mL, 50 μg of streptomycin sulfate per mL, and 10% heat-inactivated fetal bovine serum (FBS) in a humidified incubator containing 5% CO2. The cells were split 1:4 weekly as recommended by the American Type Culture Collection (ATCC).
TNFα assay. Varying concentrations of the test compound or control compound were added to THP-1 cells plated at a density of 1×10^6cells/mL in 600 μL of 10% RPMI in a 48 well plate. After one hour the cells were stimulated with 0.5 μg of lipopolysaccharide (LPS; Sigma, lot number 43H40491) per mL. Six hours post-stimulation supernatants were collected and assayed for TNFα or IL-1β production using a commercially available cytokine detection ELISA (Enzyme Linked Immunosorbent Assay) kit according to the suppliers instructions. A suitable assay kit may be obtained from Biosource, or R and D systems. A novel xanthine analog, HWA-3138, having the structure (as shown below) was used as the control compound (30) in this study to monitor the response of the THP-l cells. Xanthine analogs are known inhibitors of TNFα but not IL-1β. In the following experiments compound HWA-3138 was used as a positive control. [drawing 58] […]
THP-1 cells were cultured and IL-1β inhibition assays were conducted as described for TNFα in Example 46, except a commercially available IL-1β assay kit, obtained from R and D Systems, Minneapolis, Minn., was used instead of the TNFα kit.
With reference now to FIG. 8, for each concentration of T70241 tested, the membrane bound IL-1β was separated from the IL-1β found free in the culture medium at 6 hours post-LPS stimulation as described in Example 46 for TNFα, and the percent inhibition of each fraction was graphed.

Series [2] concerns TNFα. The experiment in a line: Inhibition of TNFα production in LPS-stimulated THP-1 cells (ELISA). The note with it: Homo sapiens; Table 2; LPS-stimulated THP-1, 6 h post-stimulation. In kind it is cell-based, human. As to the method:
as §1
TNFα assay. Varying concentrations of the test compound or control compound were added to THP-1 cells plated at a density of 1×10^6cells/mL in 600 μL of 10% RPMI in a 48 well plate. After one hour the cells were stimulated with 0.5 μg of lipopolysaccharide (LPS; Sigma, lot number 43H40491) per mL. Six hours post-stimulation supernatants were collected and assayed for TNFα or IL-1β production using a commercially available cytokine detection ELISA (Enzyme Linked Immunosorbent Assay) kit according to the suppliers instructions. A suitable assay kit may be obtained from Biosource, or R and D systems. A novel xanthine analog, HWA-3138, having the structure (as shown below) was used as the control compound (30) in this study to monitor the response of the THP-l cells. Xanthine analogs are known inhibitors of TNFα but not IL-1β. In the following experiments compound HWA-3138 was used as a positive control. [drawing 58]
Time of Addition. Varying concentrations of test or control compounds were added to THP-1 cells (1×10^6 cells/mL) at different time points post-stimulation using 0.5 μg of LPS (Sigma, lot number 43H40491) per mL in 300 μL of 10% RPMI in a 48 well plate. Six hours post-stimulationsupernatants were collected and assayed for TNFα or IL-1β production using a Biosource cytokine detection ELISA (Enzyme Linked Immunosorbent Assay) kit according to the supplier's instructions.
The membrane bound TNFα was separated from the free TNFα in the culture medium at 6 hours post-LPS stimulation as follows: The corresponding cells were centrifuged at 3500 rpm (~1,000×g) for 6 min. The supernatants were removed and the cell pellets were then resuspended in 200 μL of 0.25 mM Tris-HCl (pH 7.4). The cell associated TNFα was prepared by freezing the cell suspension in dry ice/ethanol and thawing at 37° C. three times with Vortexing in-between freeze-thaw cycles. Each cycle was 4-5 min apart.
To determine the long-term effects of phosphazole compound T70241 on TNFα production after a single treatment, THP-1 cells were pre-incubated with T70241, washed and resuspended in drug free medium. The xanthine analog HWA-3138 was used as a control.

Series [3] has as its system adenosine deaminase (ADA). Nature of the series: Enzymatic hydrolysis by adenosine deaminase. In kind it is in vitro ADME, calf. The conditions noted are these: 25° C. As to the method: Adenosine deaminase (ADA, adenosine aminohydrolase, EC 3.5.4.4, SIGMA) from calf intestinal mucosa was prepared to give a stock of 1 mg/mL (250-280 units/mL) in pH 7.4, 0.01 M phosphate buffer. The relative rates of hydrolysis of selected compounds by ADA and characterization of the products was carried as follows. […] Fifty-microliter aliquots were taken at time intervals and hydrolysis was quenched by mixing with 0.45 mL of distilled water and then the diluted sample was heated at 95° C. for 6 min to ensure enxyme deactivation. The decrease in substrate concentration and the formation of the products was followed over time by UV-spectroscopic analysis. Adenosine was used as a control in this experiment and one unit is defined as the amount of ADA that hydrolyzes 1.0 μmol of adenosine/min at 25° C.

The test system of series [4] is TNFα. The note with it: by inhibition of PDE activity; cited from earlier work.
For series [5], the system named is human T-lymphoblast (Molt-4F) cells. The conditions noted are these: in culture; cited from earlier work.
For series [6], the system named is murine leukemia (L1210) cells. The conditions noted are these: in culture; cited from earlier work.
The test system of series [7] is murine mammary carcinoma (FM3) cells. The note with it: in culture; cited from earlier work.
The subject of series [8] is human B-lymphoblast (Raji) cells. The conditions noted are these: in culture; cited from earlier work.
Series [9] relates to vesicular stomatitis virus. The note with it: in culture; cited from earlier work.
A further series has as its system coxsackie B4 virus. The conditions noted are these: in culture; cited from earlier work.
The subject of a further series is vaccinia virus. The conditions noted are these: in culture; cited from earlier work.
Another series relates to HCMV (Town strain). The experiment in a line: HCMV plaque reduction (CPE) assay in MRC-5 cells. The series is classed as cell-based, human cytomegalovirus. The note with it: Human betaherpesvirus 5, MRC5; Table 4; read-out: IC50 HCMV. As to the method:
The adenine analog phosphazole (compound T70241) was assayed for antiviral activity using a HCMV plaque reduction assay, in accordance with known methods such as that described in U.S. Pat. No. 5,446,045.
(§2) Cell Culture. Vero (African Green Monkey kidney cells) and MRC-5 (diploid Human Embryonic Lung fibroblasts) cells were obtained from the American Type Culture Collection (ATCC) and were grown in minimal essential medium (MEM) with Earl's salts and glutamine (GIBCO BRL, Life Technologies, Inc.) with 10% heat inactivated fetal bovine serum (GIBCO BRL) and penicillin (100 μg/mL)/streptomycin (100 μg/mL).
CMV Cytopathic Effect (CPE) Assay. Assays were performed essentially as described by Lewis et al. (111), which report is incorporated herein by reference. MRC-5 cells (100,000 cells/well) were seeded in 24-well plates overnight. Medium was then removed and wells were rinsed once with 250 μL of 2% FCS-MEM before adding 40-50 pfu of HCMV (Town strain) to each well. After 2 hours of virus adsorption, the medium was removed and the cells were rinsed once with 2% FCS-MEM. Varying concentrations of the phosphazole compound in the culture medium (1 mL) was then added to appropriate wells and plates were incubated for 5-6 days at 37° C. in a humidified 5% CO2 atmosphere. Each concentration was tested in duplicate wells.
The extent of the plaque reduction was quantitated by removing the media and adding 200 μL of 0.1% crystal violet in 20% methanol to all wells. The crystal violet was then removed after 10 min staining at room temperature by rinsing in the sink with tap water and the plates dried overnight. The plaques were then counted using a Nikon inverted microscope.

Series [10] in a line: Cytotoxicity on static MRC-5 cells. The series is classed as cell-based. The note with it: human, Table 4, 50% cell death (static cells), read-out: TC50 Static MRC-5. As to the method: as §2
(§3) Cytotoxicity Analysis. The cytotoxicity of the compound was assayed using few the CellTiter 96™ Aqueous Non-Radioactive Cell Proliferation (MTS) Assay (Promega). Briefly, viable cell number was determined by trypan blue staining and cells (MRC-5 and Vero) were resuspended in minimal essential medium (MEM) supplemented with 10% FBS (GIBCO). Eighty microliters of cell suspension (1.7×10^4 cells/well) was dispensed onto a 96-well microtiter plates. At this time 20 μL of drug (or control) was added to appropriate wells. Each concentration was assayed in quadruplicate. The plates were incubated at 37° C. in a humidified 5% CO2 atmosphere for 4 days and MTS assay was performed according to the manufacturer's instructions. The average absorbence of the sample was graphed for each concentration and the data obtained was used to calculate TC50 (the concentration necessary to give one-half maximum growth) for each compound.

The next series deals with normal cells. The note with it: relative to antiviral concentrations; cited from earlier work.
Series [11] in a line: Cytotoxicity on growing MRC-5 cells (MTS). In kind it is cell-based, human. The conditions noted are these: human, mrc-5 cells; Table 4; 50% inhibition of logphase growing cells; read-out: TC50 Growing MRC-5. As to the method: as §2, §3
The subject of series [12] is bone marrow progenitor cells. The note with it: cited from earlier work.
Series [13] is described as follows: Cytotoxicity on static Vero cells. The series is classed as cell-based. The conditions noted are these: african green monkey, Table 4, 50% cell death (static cells), read-out: TC50 Static Vero. As to the method: as §2, §3
A short description of series [14]: Cytotoxicity on growing Vero cells (MTS). The series is classed as cell-based. The conditions noted are these: african green monkey, Table 4, 50% inhibition of logphase growing cells, read-out: TC50 Growing Vero. As to the method:
as §2, §3

≈ marks a conversion by molar mass, not a printed value. Like-named read-outs stand apart in the source and are kept apart here.

Consider `O=C(O)P(=O)(O)O` [foscarnet], for which the “clinical toxicity” value in [1] (patients) is “nephrotoxicity, hypocalcemia, and seizures in some patients”. In addition, the “activity against herpesviruses” value with herpesviruses was “observed activity against all known human herpesviruses”.
As a reminder, the IC50 is the concentration needed to halve the response being measured. On to `Nc1ncnc2c1ncn2[C@@H]1O[C@H](CO)[C@@H](O)[C@H]1O` [Adenosine, reference compound], for which the half-maximal inhibitory concentration (IC50) with IL-1β is > 250 µg/mL; in the series with TNFα [2], 100 µg/mL (≈ 374 µM). In series [3], the “rate of hydrolysis by ADA” value was found to be 1.0 pmole/unit per min. Further, in the series with TNFα [4], the “suppression of TNFα production” value is reported as “suppression of TNFα production”.
On to `CCOP(=O)(OCC)c1nc2c(Cl)ncnc2n1[C@@H]1O[C@H](CO)[C@@H](O)[C@H]1O` [compound 1, Diethyl 6-chloro-9-(β-D-ribofuranosyl)purine-8-phosphate], for which the “inhibition of proliferation of Molt-4F” value in series [5] is recorded as “inhibitory”. Moreover, the “inhibition of proliferation of L1210” value in series [6] is “inhibitory”. Also, in series [7], the “inhibition of proliferation of FM3” value is “inhibitory”. Besides, the “inhibition of proliferation of Raji” value in series [8] is listed as “inhibitory”. Further, the “activity against vesicular stomatitis virus” value in [9] was “significant activity”. Further, the “activity against coxsackie B4 virus” value with coxsackie B4 virus is “significant activity”. Besides, in the series with vaccinia virus, the “activity against vaccinia virus” value is recorded as “significant activity”.
Take `Nc1nc(O)c2ncn(COC(CO)CO)c2n1` [DHPG, ganciclovir, reference compound]: the IC50 with HCMV (Town strain) amounted to 3.5 µg/mL (≈ 13.7 µM). Further, the “clinical toxicity” value in series [1] (human, in vivo) is on record as “most clinical toxicity is myelosuppression”. In addition, the CC50 at 96 h in series [10], in [11], in series [13] and in [14] was > 250 µg/mL throughout. Besides, the “concentration needed to inhibit growth of normal cells” value in the series on normal cells is “much higher concentrations are needed to inhibit cell growth of normal cells”. Besides, in series [12], the “toxicity to bone marrow progenitor cells” value is recorded as “toxic to bone marrow progenitor cells in culture”. Besides, in the series with herpesviruses, the “activity against herpesviruses” value is “potent inhibitor of most human and animal herpes viruses in culture”.
